This note sets out measurements from patent US20250154145A1, “OXER1 ANTAGONISTS AND USES THEREOF” (Fairhaven Pharmaceuticals Ins., priority 2021, published 2025).

For orientation: IC50 means the concentration that inhibits the measured activity by half.

One assay relates to neutrophils. In words: Neutrophil calcium flux assay (5-OXO-ETE-stimulated, Indo-1 fluorescence). The format is cell-based. Conditions: Neutrophil, 5-OXO-ETE-stimulated calcium flux. The method, boiled down:
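Indo-1-loaded neutrophils (5×10^6 cells/ml, 30 min at 37 °C) in HBSS with Ca/Mg and HEPES, pre-incubated 5 min with antagonist or buffer. Stimulated with 5-OXO-ETE added at 200 nM (4× stock); fluorescence (ex 331/em 410 nm) read every 5 s for 30 cycles, expressed as net fluorescence.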
For orientation: Calcium assays in cells follow changes in intracellular calcium, usually with a dye or a luminescent sensor.

The next assay addresses T1, Human OXER1 (Homo sapiens, UniProt Q8TDS5).
T1 construct: host or cells: HEK293 cells, transient transfection
As to the kind of experiment: BRET early endosome trafficking assay (OXER1-Rluc8 / rGFP-FYVE in HEK293 cells). The format is cell-based. Particulars: HEK293 cells transfected with OXER1-Rluc8 and rGFP-FYVE, 5-oxo-ETE agonist. From the text:
Background—The following assay can be used for determination of OXER1 activation in living HEK293 cells. Signalling functions of GPCRs are tightly regulated by endocytosis, the targeting of receptors to endosomes and their sorting to lysosomes or recycling to the plasma membrane. The early endosomes (EEs) trafficking assay (Namkung et al., Monitoring G protein-coupled receptor and β-arrestin trafficking in live cells using enhanced bystander BRET, Nat Commun 2016, 7: 12178) uses Rluc8-tagged OXER1 and Renilla GFP (rGFP) attached to the FYVE domain from human endofin/zinc finger FYVE domain-containing protein 16, which binds phosphatidylinositol 3-phosphate in EEs. Agonist stimulation of OXER1-Rluc8 leads to trafficking of the receptor to EEs, and ensuing increase of the donor concentration relative to the rGFP-FYVE acceptor anchored in the same cellular compartment, and thus results in an increase in BRET signal.
Plasmids—Human OXER1 VersaClone cDNA was obtained from R&D Systems. Rluc8 (A55T, C124A, S130A, K136R, A143M, M185V, M253L, and S287L variant of theRenilla renformis luciferase) gBlocks gene fragment (Integrated DNA Technologies, IA) was inserted with linker in frame at the C-terminus of OXER1. The FYVE domain from human endofin (residues Q739 to K806) attached in frame at the C terminus of a humanized Renilla GFP (rGFP), were synthesized as gBlocks gene fragments.
Bioluminescence Resonance Energy Transfer (BRET) Measurement—HEK293 cells were transfected with OXER1-Rluc8 and rGFP-FYVE. The following day, transiently transfected cells were seeded in 96-well white clear bottom microplates coated with poly-D-lysine and left in culture for 24 hours. Cells were washed once with Tyrode's buffer (140 mmol/L NaCl, 1 mmol/L CaCl2, 2.7 mmol/L KCl, 0.49 mmol/L MgCl2, 0.37 mmol/L NaH2PO4, 5.6 mmol/L glucose, 12 mmol/L NaHCO3, and 25 mmol/L HEPES, pH 7.5) before performing assays in Tyrode's buffer. Test compounds were incubated with cells for 15 minutes at 37° C. before addition of […] of the OXER1 agonist 5-oxo-6E,8Z,1IZ,14Z-eicosatetraenoic acid (5-oxo-ETE) for 45 minutes at 37° C. The Rluc8 substrate coelenterazine 400A (Prolume, Lakeside, AZ) was added at a final concentration of […] and BRET readings were collected using a Spark or Infinite M1000 microplate reader (Tecan, Morrisville, NC). BRET^2 readings between Rluc8 and rGFP were collected by sequential integration of the signals detected in the 370 to 450 nm (Rluc8) and 510 to 540 nm (rGFP) windows. The BRET signal was calculated as the ratio of light emitted by acceptor (rGFP) over the light emitted by donor (Rluc8). Ligand-promoted net BRET values were calculated by subtracting vehicle-induced net BRET from ligand-induced net BRET.
Background: In BRET a luciferase serves as donor, and the signal depends on an acceptor being close.

T1 sequence (Q8TDS5 whole entry): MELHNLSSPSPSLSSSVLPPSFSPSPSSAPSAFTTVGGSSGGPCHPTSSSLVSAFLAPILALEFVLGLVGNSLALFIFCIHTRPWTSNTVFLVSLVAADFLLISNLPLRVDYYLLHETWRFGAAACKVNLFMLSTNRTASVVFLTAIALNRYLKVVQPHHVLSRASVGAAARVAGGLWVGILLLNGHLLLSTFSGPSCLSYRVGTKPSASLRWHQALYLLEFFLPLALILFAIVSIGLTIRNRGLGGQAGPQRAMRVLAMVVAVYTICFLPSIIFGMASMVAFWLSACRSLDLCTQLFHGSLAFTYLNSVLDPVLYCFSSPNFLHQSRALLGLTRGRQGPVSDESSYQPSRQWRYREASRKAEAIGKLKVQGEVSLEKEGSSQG

For `CC(C)C#CCCCCCCc1c(C(=O)C[C@H](C)CC(=O)O)c2cc(Cl)ccc2n1C` [Compound I-68], the IC50 with neutrophils and at Human OXER1 was less than 0.1 µM throughout.
As for `C[C@H](CC(=O)NO)CC(=O)c1c(CCCCCCc2cccc(Cl)c2)n(C)c2ccc(Cl)cc12` [Compound I-17], the IC50 in the assay with neutrophils and on Human OXER1 was greater than 0.3 µM each time.
With `C[C@H](CC(=O)O)CC(=O)c1c(CCCCOCc2cccc(Cl)c2)n(C)c2ncc(C(F)(F)F)cc12` [Compound I-182], the results for the IC50 in the assay on neutrophils and on Human OXER1 were less than 0.1 µM and 0.1 to 0.3 µM, respectively.
Taken in the same sequence, the figures for `C[C@H](CC(=O)O)CC(=O)c1c([C@@H](O)CCCCCc2cccc(Cl)c2)n(C)c2ccc(Cl)cc12` [Compound I-3] were greater than 0.3 µM and less than 0.1 µM.
Taken in the same sequence, the figures for `C[C@@H](CC(=O)O)CC(=O)c1c([C@H](O)CCCCCc2cccc(Cl)c2)n(C)c2ccc(Cl)cc12` [Compound I-6] were greater than 0.3 µM and greater than 0.3 µM.
Turning to `C[C@H](CC(=O)O)CC(=O)c1c(CCCCCCc2cccc(Cl)c2)sc2ccc(Cl)cc12` [Compound I-23], the IC50 was 0.1 to 0.3 µM with neutrophils and less than 0.1 µM on Human OXER1.
Taken in the same sequence, the figures for `C[C@H](CC(=O)O)CC(=O)n1c(CCCCCCc2cccc(Cl)c2)cc2ccc(Cl)cc21` [Compound I-39] were greater than 0.3 µM and 0.1 to 0.3 µM.
For `C[C@H](CC(=O)O)CC(=O)c1c(CCCCCCc2cccc(Cl)c2)oc2ccc(Cl)cc12` [Compound I-21], the IC50 in the assay on neutrophils is greater than 0.3 µM; on Human OXER1 it was 0.1 to 0.3 µM.
In the case of `C[C@@H](CC(=O)O)CC(=O)c1c(CCCCCCc2ccccc2)n(C)c2ccc(Cl)cc12` [Compound I-8], the IC50 with neutrophils and on Human OXER1 was greater than 0.3 µM each time.
On to `C[C@H](CC(=O)O)CC(=O)c1c(CCCCCOc2cccc(Cl)c2)n(C)c2ccc(Cl)cc12` [Compound I-59], for which the IC50 in the assay with neutrophils is less than 0.1 µM; on Human OXER1, 0.1 to 0.3 µM.
Taken in the same sequence, the figures for `C[C@H](CC(=O)O)CC(=O)c1c(CCCCCC(O)c2cccc(Cl)c2)n(C)c2ccc(Cl)cc12` (stereo partly drawn) [Compound I-44] were less than 0.1 µM and less than 0.1 µM.
For `C[C@@H](CC(=O)O)CC(=O)c1c(CCCCCCc2cccc(Cl)c2)n(C)c2ccc(Cl)cc12` [Compound I-1], in that order: greater than 0.3 µM and 0.1 to 0.3 µM.
